Values joined by “and” are separate entries in the source; they are usually repeats but may differ in a detail not shown here. Equal values may be shown once. *1 amine or outer side, *2 acyl side, *3 side chain or, on linkers, in order; H or OH if unused. Where a SMILES comes first, the peptide text is derived from it. [ ]: non-standard residue; d: D form. X2 = N=C(CCl)NCCC[C@H](N[*:1])C(=O)[*:2]; X1 = N=C(CCl)NCCCN(CC(=O)[*:2])[*:1]; Gly(N-CH2CH2OH) = O=C(O)CNCCO; Nleu = CC(C)CNCC(=O)O; Nlys = NCCCCNCC(=O)O; Sar = CNCC(=O)O
How the values were obtained:
PRMT5 = target: T1, PRMT5 (Homo sapiens, UniProt O14744); assay: MTase-Glo methyltransferase IC50 assay, PRMT5; type: biochemical; settings: 200 nM PRMT5, AcH4-21 substrate 225 μM
T1 construct: made in house
T1 sequence (O14744 whole entry, species assumed): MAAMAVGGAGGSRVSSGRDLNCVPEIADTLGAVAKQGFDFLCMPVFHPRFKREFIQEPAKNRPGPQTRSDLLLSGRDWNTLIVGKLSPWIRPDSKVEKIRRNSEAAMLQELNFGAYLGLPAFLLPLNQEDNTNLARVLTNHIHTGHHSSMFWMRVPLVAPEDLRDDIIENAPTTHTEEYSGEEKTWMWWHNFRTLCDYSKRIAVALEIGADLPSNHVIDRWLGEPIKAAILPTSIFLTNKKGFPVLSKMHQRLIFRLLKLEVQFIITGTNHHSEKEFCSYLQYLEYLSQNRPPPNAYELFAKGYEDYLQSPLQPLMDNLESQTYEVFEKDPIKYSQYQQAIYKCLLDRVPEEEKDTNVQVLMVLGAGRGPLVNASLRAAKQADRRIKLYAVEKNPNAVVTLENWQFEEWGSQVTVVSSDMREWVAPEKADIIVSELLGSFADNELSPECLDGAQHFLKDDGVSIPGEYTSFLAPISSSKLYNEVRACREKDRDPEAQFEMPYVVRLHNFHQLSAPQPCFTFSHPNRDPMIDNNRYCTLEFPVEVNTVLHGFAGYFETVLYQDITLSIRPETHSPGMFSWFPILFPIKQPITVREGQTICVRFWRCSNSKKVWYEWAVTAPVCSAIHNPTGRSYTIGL
Method: (§1) The IC50 value for the peptoid inhibitors were measured using the MTase-Glo methyltransferase assay kit (Promega). The peptoid was incubated in assay buffer (20 mM Tris-HCl pH 8.0, 50 mM NaCl, 1 mM EDTA, 3 mM MgCl2, 0.1 mg/ml BSA, 1 mM DTT) and […] (0–1000 μM). After a preincubation of 10 min, 200 nM PRMT1 or PRMT5 was added to the assay before adding in the substrate (AcH4-21) at 225 μM. After 15 min, the reaction was quenched with 0.5% TFA (0.1% final concentration), vortexed, and incubated for an additional 10 min. To detect product formation, the MTase-Glo reagent was added for 30 min at rt, followed by addition of the MTase-Glo detection solution for an additional 30 min. Finally, the luminescence signal was measured using a BioTek Synergy two multi-mode microplate reader. The values were converted to product concentration using a standard curve of SAH (0–5 μM). The IC50 values were determined using Equation 1 and fit to a curve using GraFit 7.03.(1) FractionalactivityofPRMT=1/(1+([I]/IC50)) IC50 is the concentration of inhibitor resulting in 50% PRMT activity, and [I] is the inhibitor concentration.

PRMT1 = target: T2, PRMT1 (Homo sapiens, UniProt Q99873); assay: MTase-Glo methyltransferase IC50 assay, PRMT1; type: biochemical; settings: for IC50: 200 nM PRMT1, AcH4-21 substrate 225 μM
T2 construct: made in house
T2 sequence (Q99873 1-353 isoform Q99873-3, species assumed): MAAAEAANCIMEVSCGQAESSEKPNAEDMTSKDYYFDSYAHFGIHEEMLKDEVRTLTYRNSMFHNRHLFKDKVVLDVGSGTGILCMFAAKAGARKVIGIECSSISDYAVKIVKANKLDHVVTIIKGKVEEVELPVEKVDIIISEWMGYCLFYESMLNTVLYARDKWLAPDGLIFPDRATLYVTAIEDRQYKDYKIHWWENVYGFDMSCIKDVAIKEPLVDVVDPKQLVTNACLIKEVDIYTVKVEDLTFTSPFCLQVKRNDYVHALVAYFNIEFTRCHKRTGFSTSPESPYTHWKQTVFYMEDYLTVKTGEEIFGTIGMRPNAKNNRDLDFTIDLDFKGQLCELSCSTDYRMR
Method: as §1

IC50 (PRMT1) [µM]	Structure (SMILES)	IC50 (PRMT5) [µM]	increase in potency (PRMT1 IC50) compared to the non-warhead H4-16 peptoid (PRMT1; warhead peptoid vs corresponding original peptoid)
	CC(=O)N(CCO)CC(=O)NCC(=O)N(CCCNC(=N)CCl)CC(=O)NCC(=O)N(CCCCN)CC(=O)NCC(=O)NCC(=O)N(CCCCN)CC(=O)NCC(=O)N(CC(=O)NCC(=O)N(CCCCN)CC(=O)NCC(=O)NCC(=O)N(C)CC(=O)N(CCCCN)CC(N)=O)CC(C)C [compound P2A] (Ac-[Gly(N-CH2CH2OH)]G[X1]G[Nlys]GG[Nlys]G[Nleu]G[Nlys]GG[Sar][Nlys]-NH2)	> 500	
29.6 ± 5.16	CC(C)C[C@H](NC(=O)CNC(=O)[C@H](CCCCN)NC(=O)CNC(=O)CNC(=O)[C@H](CCCCN)NC(=O)CNC(=O)[C@H](CCCNC(=N)CCl)NC(=O)CNC(=O)[C@@H](N)CO)C(=O)NCC(=O)N[C@@H](CCCCN)C(=O)NCC(=O)NCC(=O)N[C@@H](C)C(=O)N[C@@H](CCCCN)C(N)=O [Compound P2 Peptide] (H-SG[X2]GKGGKGLGKGGAK-NH2; N-terminus and C-terminus assumed)		
46.9 ± 4.86	CC(=O)N[C@@H](CO)C(=O)NCC(=O)N[C@@H](CCCNC(=N)CCl)C(=O)NCC(=O)N[C@@H](CCCCN)C(=O)NCC(=O)NCC(=O)N[C@@H](CCCCN)C(=O)NCC(=O)N[C@@H](CC(C)C)C(=O)NCC(=O)N[C@@H](CCCCN)C(=O)NCC(=O)NCC(=O)N[C@@H](C)C(=O)N[C@@H](CCCCN)C(N)=O [AcH4-16 warhead peptide] (Ac-SG[X2]GKGGKGLGKGGAK-NH2; C-terminus assumed)		

Structure (SMILES)	IC50 (PRMT1) [µM]	IC50 (PRMT5) [µM]	increase in potency (PRMT1 IC50) compared to the non-warhead H4-16 peptoid (PRMT1; warhead peptoid vs corresponding original peptoid)
CC(C)CN(CC(=O)NCC(=O)N(CCCCN)CC(=O)NCC(=O)NCC(=O)N(C)CC(=O)N(CCCCN)CC(N)=O)C(=O)CNC(=O)CN(CCCCN)C(=O)CNC(=O)CNC(=O)CN(CCCCN)C(=O)CNC(=O)CN(CCCNC(=N)CCl)C(=O)CNC(=O)CNCCO [compound P2] (H-[Gly(N-CH2CH2OH)]G[X1]G[Nlys]GG[Nlys]G[Nleu]G[Nlys]GG[Sar][Nlys]-NH2)	8.73 ± 0.314	> 500	45 fold and > 45 fold

Source: article PMC9307946, “A peptoid-based inhibitor of protein arginine methyltransferase 1 (PRMT1) induces apoptosis and autophagy in cancer cells” (The Journal of Biological Chemistry, 2022)
